Three compounds from patent US20230391776A1, “AMIDE OXAZOLE COMPOUND” (MEDSHINE DISCOVERY INC., priority 2020, published 2023) can be followed below.

In one data set the target is T1, human IRAK4 (Homo sapiens, UniProt Q9NWZ3).
T1 construct: purchased Reaction Biology Corp
T1 sequence (Q9NWZ3 1-460): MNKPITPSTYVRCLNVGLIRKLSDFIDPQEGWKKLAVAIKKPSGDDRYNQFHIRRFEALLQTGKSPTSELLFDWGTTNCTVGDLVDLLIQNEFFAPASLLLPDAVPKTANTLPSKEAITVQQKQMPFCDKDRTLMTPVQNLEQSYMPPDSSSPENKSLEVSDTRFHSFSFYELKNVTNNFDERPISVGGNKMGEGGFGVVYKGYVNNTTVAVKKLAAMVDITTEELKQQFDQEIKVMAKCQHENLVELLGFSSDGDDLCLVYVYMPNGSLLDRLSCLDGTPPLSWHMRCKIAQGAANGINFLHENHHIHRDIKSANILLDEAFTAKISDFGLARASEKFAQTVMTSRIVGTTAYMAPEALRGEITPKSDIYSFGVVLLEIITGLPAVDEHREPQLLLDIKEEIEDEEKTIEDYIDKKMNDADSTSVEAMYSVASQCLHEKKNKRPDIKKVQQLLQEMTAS
The data set is described as follows: In vitro IRAK4 kinase activity, 33P isotope-labeled kinase assay. In kind it is biochemical. As to the method: The IC50 values were determined using ^33P isotope-labeled kinase activity assay (Reaction Biology Corp) to evaluate the inhibitory ability of the tested compounds on human IRAK4.
Buffer conditions: 20 mM Hepes (pH 7.5), 10 mM MgCl2, 1 mM EGTA, 0.02% Brij35, 0.02 mg/mL BSA, 0.1 mM Na3VO4, 2 mM DTT, 1% DMSO.
Test procedure: At room temperature, the tested compound was dissolved in DMSO and a 10 mM solution was prepared for use. The substrate was dissolved in a newly prepared buffer solution, and the tested IRAK4 kinase was added thereto and mixed evenly. The DMSO solution dissolved with the tested compound was added to the above mixed evenly reaction solution using acoustic technique (Echo 550). After incubation for 15 minutes, ^33P-ATP was added to initiate the reaction. The reaction was carried out at room temperature for 120 minutes, and the reaction mixture was dropped on P81 ion exchange filter paper (Whatman #3698-915). The filter paper was washed repeatedly with 0.75% phosphoric acid solution, and the radioactivity of phosphorylated substrate residues on the filter paper was determined. The kinase activity data were expressed by comparing the kinase activity of the group containing the tested compound with the kinase activity of the blank group (only containing DMSO), and the IC50 value was obtained by curve fitting by Prism4 software (GraphPad), the experimental results were shown in Table 2.

In data set [1] the test system is OCI-LY10 human diffuse large B lymphoma cells. The data set is described as follows: OCI-LY10 cell proliferation (Cell Titer Glo). In kind it is cell-based. Conditions: 72 hours. The protocol:
(§1) The tumor cell lines OCI-LY10 and TMD-8 were used to detect the effect of the compound of the disclosure on inhibiting tumor cell proliferation in vitro.
OCI-LY10 human diffuse large B lymphoma cells, from Nanjing Cobioer Biotechnology Co., Ltd
(§2) The compound was diluted with DMSO to a final concentration of 10 mM. The compound was freshly prepared and ready for use.
(§3) a) Logarithmic growth period cells were collected, counted, resuspended with complete culture medium, the cell concentration was adjusted to an appropriate concentration (determined according to the results of cell density optimization test), inoculated on 96-well plates, and 100 μL of cell suspension was added to each well. Cells were incubated in an incubator with 37° C., 100% relative humidity and 5% CO2 for 24 hours.
(§4) b) The compound to be tested was diluted to 50 μM with culture medium and then gradient diluted for 8 times. Cells were added with 25 μL/well. The final concentrations of the compound were from […], 3-fold gradient dilution, with a total of 9 concentration points.
(§5) c) Cells were incubated in an incubator with 37° C., 100% relative humidity and 5% CO2 for 72 hours;
(§6) d) 60 μL of CTG test reagent was added to the culture medium.
(§7) e) Shaked fully and reacted in the dark for 10 min. Luminescence was measured on ENVISION and the inhibition rate was calculated.
(§8) Cell growth inhibition rate %=[(RLUv−RLUs)/(RLUv−RLUb)]×100%

Data set [2] has as its system TMD-8 human diffuse large B lymphoma cells. Kind of data set: TMD-8 cell proliferation (Cell Titer Glo). The class given is cell-based. Conditions: TMD8, 72 hours. The protocol:
as §1
TMD-8 human diffuse large B lymphoma cells, from Nanjing Cobioer Biotechnology Co., Ltd
as §2, §3, §4, §5, §6, §7, §8
Background: In ATP-based viability assays light output follows the ATP content of the culture.

A short description of the next data set: Pharmacokinetics of rats. In kind it is in vivo. Conditions: rat, plasma, SD male rats; for Vd / AUC(0-t) / clearance / half-life: IV 1 mg/kg; for Vd: read-out: Apparent volume of distribution Vdss; for AUC(0-t): read-out: Area under the plasma concentration-time curve AUC0-24h; for clearance: read-out: Clearance rate CL; for half-life: read-out: Half-life T1/2 (converted); for bioavailability / AUC / Cmax / Tmax: PO 3 mg/kg; for AUC: read-out: Area under the plasma concentration-time curve AUC; for Cmax: read-out: Peak concentration Cmax; for Tmax: read-out: Peak time Tmax. As to the method:
The purpose of this experiment was to study the pharmacokinetics of the tested compound in the plasma of SD male rats after intravenous injection and oral administration.
SD male rats from 7 to 10 weeks old were selected, and the dosage of intravenous and oral administration was 1 mg/kg and 3 mg/kg respectively. Rats in the gavage group fasted for at least 12 hours before administration, and feeding was resumed after administration for 4 hours. Intravenous injection group was free to eat and drink during the whole experiment.
Drug preparation operation: in the intravenous injection group, the compound was weighed and dissolved with 5% DMSO/10% Solutol/85% H2O, and a clear solution of 0.5 mg/mL was prepared by vortex, which was filtered by a 0.22 m microporous membrane for later use. In the gavage group, the compound was dissolved in 5% DMSO/10% Solutol/85% H2O, and a uniform suspension was prepared by vortex. On the day of the experiment, the animals in the intravenous group were given the corresponding compound by a single injection through the tail vein, and the dosage volume was 2 mL/kg. In the oral group, the corresponding compounds were given by single gavage, and the dosage volume was 5 mL/kg. The animals before administration were weighed, and the administration volume was calculated according to the weight. The sampling time was 0.083 (injection group), 0.25, 0.5, 1, 2, 4, 6, 8, 10 (gavage group), 24 hours. Approximately 250 μL of whole blood was collected through the jugular vein at each time point for plasma preparation for concentration determination by high performance liquid chromatography-tandem mass spectrometry (LC-MS/MS). All animals were euthanized by CO2 anesthesia after collecting PK samples at the last time point. The non-atrioventricular model of WinnonLin™ Version 6.3 (Pharsight, Mountain View, CA) pharmacokinetic software was used to process the plasma concentration, and the pharmacokinetic parameters were calculated by linear logarithmic trapezoid method.

As usually defined, the IC50 is the concentration that inhibits the measured activity by half. In general, clearance refers to a measure of how efficiently the substance is removed, as volume per time. As a reminder, the bioavailability is dose-corrected exposure relative to a reference, in per cent. A low value points to poor availability. As a reminder, the Tmax is the time from dosing to the highest level. Compound `Cc1cc(-c2nc(C(=O)Nc3cn4cc(C(C)(C)O)nc4cc3-c3ccccc3)co2)ccn1` [WX009] gave an IC50 against human IRAK4 of 0.9 nM. The compound also displayed an IC50 in data set [1] of 48 nM. The compound further had an IC50 in data set [2] of 37 nM. Further, in the data set “Pharmacokinetics of rats”, the Vd turned out to be 0.2 L/kg, the AUC(0-t) came to 35.5 µM·h, the clearance was 1.1 mL/min/kg and the half-life was 2.5 h. Also, in the data set “Pharmacokinetics of rats”, the bioavailability is 55%, the AUC is 59.1 µM·h, the Cmax is 10.1 µM and the Tmax worked out at 1.3 h.

On human IRAK4, `CC(C)(O)c1cn2cc(NC(=O)c3coc(-c4ccnc(N)c4)n3)c(-c3ccccc3)cc2n1` [WX017] had an IC50 of 0.1 nM. The same compound gave an IC50 in data set [1] of 7 nM. Moreover, inhibition in data set [2] was half-maximal at 10 nM (IC50). Further, in the data set “Pharmacokinetics of rats”, the Vd stood at 0.8 L/kg, the AUC(0-t) was determined as 5.51 µM·h, the clearance worked out at 7 mL/min/kg and the half-life was 4.1 h. Besides, in “Pharmacokinetics of rats”, the bioavailability was found to be 29%, the AUC turned out to be 4.77 µM·h, the Cmax is 1.02 µM and the Tmax came to 0.8 h.

On to `CC(C)(O)c1cn2cc(NC(=O)c3coc(-c4ccnc(N)c4F)n3)c(-c3ccccc3)cc2n1` [WX027], for which, at human IRAK4, the IC50 is 0.1 nM. The same compound yielded an IC50 in data set [1] of 26 nM. The compound further came in with an IC50 in data set [2] of 32.2 nM. For the same compound, in the data set “Pharmacokinetics of rats”, the Vd was 0.3 L/kg, the AUC(0-t) turned out to be 8.84 µM·h, the clearance was found to be 4 mL/min/kg and the half-life was 1.4 h. Further, in “Pharmacokinetics of rats”, the bioavailability was determined as 38%, the AUC was 10.2 µM·h, the Cmax turned out to be 4.33 µM and the Tmax came out at 0.3 h.
